# Experimental data reported in patent US9820483B2, “Microbial composition” (Rohm and Haas Company, priority 2011, dated 2017).
# Assays:
# E. coli ATCC #10536 = assay: Synergy test: high resolution MBC microtiter plate assay in phosphate buffer containing 35% dipropylene glycol, 15 seconds contact; format: cell-based, Escherichia coli; settings: for MBC of the component acting alone (QA or QB; Qa or Qb with the other component at 0): E. coli 10536, complete kill in 15 seconds, phosphate buffer with 35% DPG
# Description: One measure of synergy is the industrially accepted method described by Kull, F. C.; Eisman. P. C.; Sylwestrowicz, H. D. and Mayer, R. L., in Applied Microbiology 9:538-541 (1961), using the ratio determined by the formula: Qa/QA÷Qb/QB=Synergy Index (“SI”) wherein: QA=concentration of compound A (first component) in percent, acting alone, which produced an end point (MBC of Compound A). […]=concentration of compound A in percent, in the mixture, which produced an end point. QB=concentration of compound B (second component) in percent, acting alone, which produced an end point (MBC of Compound B). Qb=concentration of compound B in percent, in the mixture, which produced an end point.
# When the sum of Qa/QA and Qb/QB is greater than one, antagonism is indicated. […] The lower the SI, the greater is the synergy shown by that particular mixture. The minimum biocidal concentration (MBC) of a microbicide is the lowest concentration tested under a specific set of conditions that provides complete kill of the tested microorganisms.
# Synergy tests were conducted using standard microtiter plate assays with phosphate buffer containing 35% dipropylene glycol (DPG). In this method, a wide range of combinations of chemicals was tested by conducting high resolution MBC assays of Component (A) in the presence of various concentrations of Component (B). High resolution MBCs were determined by adding varying amounts of microbicide to one column of a microtiter plate and doing subsequent ten-fold dilutions using an automated liquid handling system to obtain a series of closely spaced endpoints. The MBC plate was inoculated one column at a time with the test microorganism. An aliquot of the inoculated well was transferred at 15 seconds to a plate containing a neutralizing agent (D/E Neutralizing Broth), mixed and held for 5 minutes before being transferred to a growth plate containing trypticase soy broth (TSB). The TSB plate was incubated at 37° C. and read for the presence/absence of growth at 24 hours. The lowest level tested that provided complete kill (as evidenced by no growth in the microtitre plate) of the test organisms in 15 seconds is the minimum biocidal concentration (MBC).
# The synergy of the combinations of the present invention was determined against a bacterium, Esherichia coli (E. coli—ATCC #10536), at a concentration of approximately 1×10^8 bacteria per mL. This microorganism is representative of natural contaminants in many consumer and industrial applications.
# [1] = test system: Escherichia coli (E. coli—ATCC #10536); assay: Automated assessment of efficacy in model surfactant base (2.85% sodium cocoyl glycinate + 1.85% sodium lauroamphoacetate, pH 10), 15 seconds exposure, delta OD450/OD590 in D/E quench; format: cell-based
# Procedure: Solutions were prepared such that the concentrations of the surfactant components and test actives were 1.1× the final desired concentration in order to allow for dilution with the bacterial inoculum in the test. The solutions were manually adjusted to pH 10.0 by dropwise addition of sodium hydroxide solution, as measured with a pH meter at ambient temperature.
# Tests were conducted using standard microtiter plate assays using an automated liquid handling system. 270 μl of the surfactant test solution was pipetted into each well of the microtitre plate and 30 μl of the bacterial suspension was then added. After exactly 15 seconds of bacterial exposure, a 30 μl volume of bacterial cells was withdrawn and transferred to 270 μl of D/E quench solution. After 5 minutes in the D/E quench, the optical density (OD) was measured for each plate in turn at two specific wavelengths (450 nm and 590 nm). These provide a dual check of antimicrobial activity, as the OD450 reading is specific for the yellow colour of D/E quench when bacterial growth is observed, whereas OD590 is specific for the initial purple colour of the D/E quench which is retained if no bacterial growth is observed. After the time zero OD measurements, plates were then incubated at 37° C. overnight (16 hours) before repeating the OD measurements. Delta OD values were calculated by subtracting […]. Bacterial growth is observed as an increase in OD450 and a decrease in ΔOD590. To identify antibacterially efficacious systems (those preventing appreciable bacterial growth after incubation), the following threshold changes in OD readings have been adopted: if (1). OD450 increases by less than 0.2 absorbance unit on incubation and (2). OD590 decreases by less than 0.35 unit on incubation. Conversely, where OD450 increases by more than 0.2 AU and OD590 decreases by more than 0.35 unit after incubation, corresponding to a colour shift from purple to yellow, the test system allows bacterial growth and is not deemed efficacious. Four replicate measurements in the same plate have been made for each test system. The number of replicate wells showing either bacterial growth or no growth is also readily assessed by eye by following the colour change.
# Dose responses for individual components and binary mixtures of actives at a fixed concentration ratio were generated by sequential dilution of liquors with further surfactant solution to obtain a series of endpoints.
# In some selected cases, the combinations were also tested at the weight ratio 1:1.
# The method used was the same as in the above Table.
SMILES,MBC of the component acting alone (QA or QB; Qa or Qb with the other component at 0) (E. coli ATCC #10536) [weight %],"Δ OD 590 nm = OD590 (time = 16 hours) − OD590 (time zero), Mean ([1]; single active at 0.1% w/v)","Δ OD 590 nm = OD590 (time = 16 hours) − OD590 (time zero), Mean ([1]; single active at 0.2% w/v)","ΔOD 450 nm = OD450 (time = 16 hours) − OD450 (time zero), Mean ([1]; single active at 0.2% w/v)","Δ OD 590 nm = OD590 (time = 16 hours) − OD590 (time zero), Mean ([1]; single active at […] w/v)","ΔOD 450 nm = OD450 (time = 16 hours) − OD450 (time zero), Mean ([1]; single active at […] w/v)",No. of replicates showing growth (out of 4) ([1]; single active at 0.2% w/v),other results
CCCC(=O)OC(C)(C)C1CC=C(C)CC1 (centres unmarked) [2-(4-methylcyclohex-3-enyl)propan-2-yl butyrate],2.4,–,–,–,–,–,–,–
CCCCc1ccc(O)cc1 [4-n-butylphenol],–,0.53,0.58,−0.54,0.54,−0.61,–,"ΔOD 450 nm = OD450 (time = 16 hours) − OD450 (time zero), Mean ([1]; single active at 0.1% w/v): −0.61"
"CCCC1CCC(C(CO)CO)CC1 [2-((1S,4R)-4-propylcyclohexyl)propane-1,3-diol]",2.5,–,–,–,–,–,–,–
Cc1cc(O)ccc1C(C)C [4-isopropyl-3-methylphenol],0.3,0.24,0.36,−1.41,–,–,4,"Δ OD 590 nm = OD590 (time = 16 hours) − OD590 (time zero), Mean ([1]; single active at 0.05% w/v): 0.25; ΔOD 450 nm = OD450 (time = 16 hours) − OD450 (time zero), Mean ([1]; single active at 0.05% w/v): −1.52; ΔOD 450 nm = OD450 (time = 16 hours) − OD450 (time zero), Mean ([1]; single active at 0.1% w/v): −1.50"
C/C=C/c1ccccc1O [(E)-2-(prop-1-enyl)phenol],–,0.59,0.63,−0.53,0.58,−0.57,4,"No. of replicates showing growth (out of 4) ([1]; single active at 0.1% w/v): 4; ΔOD 450 nm = OD450 (time = 16 hours) − OD450 (time zero), Mean ([1]; single active at 0.1% w/v): −0.60; No. of replicates showing growth (out of 4) ([1]; single active at […] w/v): 4"
CCC1CCC(C(CO)CO)CC1 (centres unmarked),–,–,–,–,0.56,−0.54,–,"No. of replicates showing growth (out of 4) ([1]; single active at 0.4% w/v): 4; Δ OD 590 nm = OD590 (time = 16 hours) − OD590 (time zero), Mean ([1]; single active at 0.4% w/v): 0.56; ΔOD 450 nm = OD450 (time = 16 hours) − OD450 (time zero), Mean ([1]; single active at 0.4% w/v): −0.49; No. of replicates showing growth (out of 4) ([1]; single active at 0.5% w/v): 4; Δ OD 590 nm = OD590 (time = 16 hours) − OD590 (time zero), Mean ([1]; single active at 0.5% w/v): 0.590; ΔOD 450 nm = OD450 (time = 16 hours) − OD450 (time zero), Mean ([1]; single active at 0.5% w/v): −0.48; No. of replicates showing growth (out of 4) ([1]; single active at […] w/v): 4"
Cc1ccc(C(C)C)cc1O [5-isopropyl-2-methylphenol],–,–,0.62,−0.52,0.64,−0.52,4,"No. of replicates showing growth (out of 4) ([1]; single active at 0.125% w/v): 4; Δ OD 590 nm = OD590 (time = 16 hours) − OD590 (time zero), Mean ([1]; single active at 0.125% w/v): 0.63; ΔOD 450 nm = OD450 (time = 16 hours) − OD450 (time zero), Mean ([1]; single active at 0.125% w/v): −0.50; No. of replicates showing growth (out of 4) ([1]; single active at […] w/v): 4; SI (Synergy Index) (E. coli ATCC #10536): 1.00"
CCCc1ccc(O)cc1 [4-propylphenol],–,0.34,0.43,−1.49,–,–,–,–
CCC(C)c1ccccc1O (centres unmarked) [2-sec-butylphenol],0.3,0.36,–,–,0.50,−0.41,–,"Δ OD 590 nm = OD590 (time = 16 hours) − OD590 (time zero), Mean ([1]; single active at 0.05% w/v): 0.30; ΔOD 450 nm = OD450 (time = 16 hours) − OD450 (time zero), Mean ([1]; single active at 0.05% w/v): −1.50"
CC(C)(C)c1cccc(O)c1 [3-tert-butylphenol],0.3,–,0.64,−0.47,–,–,–,"Δ OD 590 nm = OD590 (time = 16 hours) − OD590 (time zero), Mean ([1]; single active at 0.125% w/v): 0.65; ΔOD 450 nm = OD450 (time = 16 hours) − OD450 (time zero), Mean ([1]; single active at 0.125% w/v): −0.45"
"CC[C@H]1CC[C@H](C(CO)CO)CC1 [2-(trans-4-ethylcyclohexyl)propane-1,3-diol]",–,–,–,–,–,–,–,"MBC ([1]; Escherichia coli, ATCC10536, 15 s, in 2.85% sodium cocoyl glycinate + 1.85% sodium lauroamphoacetate solution at pH 10, E. coli, read-out: MBC): > 2000 µg/mL"
"C=C(C)[C@@H]1CC[C@@H](C)C[C@H]1O [(1R,2S,5R)-5-methyl-2-(prop-1-en-2-yl)cyclohexanol]",0.5,–,–,–,–,–,–,–
CCC(C)c1ccc(O)cc1 (centres unmarked) [4-sec-butylphenol],0.2,–,0.59,−0.56,0.60,−0.53,4,"Δ OD 590 nm = OD590 (time = 16 hours) − OD590 (time zero), Mean ([1]; single active at 0.125% w/v): 0.60; ΔOD 450 nm = OD450 (time = 16 hours) − OD450 (time zero), Mean ([1]; single active at 0.125% w/v): −0.56"
Cc1cc(O)cc(C(C)C)c1 [3-isopropyl-5-methylphenol],0.3,–,–,–,–,–,–,–
CC(C)(C)c1ccccc1O [2-tert-butylphenol],–,0.23,0.07,−0.04,–,–,0,"Δ OD 590 nm = OD590 (time = 16 hours) − OD590 (time zero), Mean ([1]; single active at 0.05% w/v): 0.22; No. of replicates showing growth (out of 4) ([1]; single active at 0.1% w/v): 4; ΔOD 450 nm = OD450 (time = 16 hours) − OD450 (time zero), Mean ([1]; single active at 0.1% w/v): −1.55; Δ OD 590 nm = OD590 (time = 16 hours) − OD590 (time zero), Mean ([1]; single active at 0.125% w/v): 0.30"
CCCc1cccc(O)c1 [3-n-propylphenol],–,–,0.56,−0.57,0.56,−0.63,4,"No. of replicates showing growth (out of 4) ([1]; single active at 0.125% w/v): 4; Δ OD 590 nm = OD590 (time = 16 hours) − OD590 (time zero), Mean ([1]; single active at 0.125% w/v): 0.57; ΔOD 450 nm = OD450 (time = 16 hours) − OD450 (time zero), Mean ([1]; single active at 0.125% w/v): −0.59"
"CC(=O)O[C@H]1C[C@H](C)CC[C@H]1C(C)C [(1S,2S,5R)-2-isopropyl-5-methylcyclohexyl acetate]",2.4,–,–,–,–,–,–,–
